Assay results published in ChEMBL document CHEMBL4017543, “Inhibitors to Overcome Secondary Mutations in the Stem Cell Factor Receptor KIT” (J Med Chem, 2017).

Legend:
[1] = biological target: Mast/stem cell growth factor receptor Kit (Homo sapiens, UniProt P10721); test: Inhibition of wild type KIT (unknown origin) using biotinylated poly-Glu-Tyr as substrate preincubated for 30 mins followed by substrate addition in presence of ATP by TR-FRET assay
[2] = biological target: Mast/stem cell growth factor receptor Kit (Homo sapiens, UniProt P10721, D816H); test: Inhibition of KIT D816H mutant (unknown origin) using biotinylated poly-Glu-Tyr as substrate preincubated for 30 mins followed by substrate addition in presence of ATP by TR-FRET assay; conditions: read-out: IC50
Sequence of Mast/stem cell growth factor receptor Kit (Homo sapiens, UniProt P10721, D816H) (P10721 26-976 D816H limits assumed): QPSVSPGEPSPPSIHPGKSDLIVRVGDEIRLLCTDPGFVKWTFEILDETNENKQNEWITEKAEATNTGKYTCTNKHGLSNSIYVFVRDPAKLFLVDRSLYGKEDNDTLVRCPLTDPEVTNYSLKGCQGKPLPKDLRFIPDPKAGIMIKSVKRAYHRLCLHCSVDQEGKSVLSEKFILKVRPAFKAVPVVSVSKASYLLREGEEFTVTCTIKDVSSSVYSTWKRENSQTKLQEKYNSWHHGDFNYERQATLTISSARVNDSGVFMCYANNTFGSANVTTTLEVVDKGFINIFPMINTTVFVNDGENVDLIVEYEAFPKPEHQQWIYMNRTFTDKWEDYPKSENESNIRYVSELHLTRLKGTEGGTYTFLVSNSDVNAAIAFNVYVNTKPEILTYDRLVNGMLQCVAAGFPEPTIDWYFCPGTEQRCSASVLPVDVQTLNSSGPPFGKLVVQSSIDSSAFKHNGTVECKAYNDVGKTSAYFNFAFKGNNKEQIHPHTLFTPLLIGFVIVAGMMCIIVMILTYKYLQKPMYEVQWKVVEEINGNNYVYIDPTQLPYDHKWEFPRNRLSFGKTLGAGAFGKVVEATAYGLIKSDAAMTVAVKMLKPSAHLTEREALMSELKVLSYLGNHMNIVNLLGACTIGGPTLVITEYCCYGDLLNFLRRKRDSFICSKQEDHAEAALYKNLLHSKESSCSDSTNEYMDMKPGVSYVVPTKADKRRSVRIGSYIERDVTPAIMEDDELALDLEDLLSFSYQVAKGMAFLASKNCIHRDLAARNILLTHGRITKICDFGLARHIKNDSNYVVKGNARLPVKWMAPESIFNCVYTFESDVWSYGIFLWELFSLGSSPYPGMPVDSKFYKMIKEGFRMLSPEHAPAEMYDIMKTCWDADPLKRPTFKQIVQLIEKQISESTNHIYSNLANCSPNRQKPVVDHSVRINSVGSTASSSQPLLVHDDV

[3] = Cytotoxicity against human GIST48B cells assessed as cell growth inhibition after 72 hrs by CellTiterGlo assay; assay type: cell-based; conditions: GIST48B cells
GISTT1 [4] = test: Cytotoxicity against human GISTT1 cells assessed as cell growth inhibition after 72 hrs by CellTiterGlo assay; assay type: functional; conditions: GISTT1, 72 h
GISTT1 [5] = test: Cytotoxicity against human GISTT1 cells harboring KIT T670I mutant assessed as cell growth inhibition after 72 hrs by CellTiterGlo assay; assay type: functional; conditions: GISTT1, 72 h
GISTT1 [6] = test: Cytotoxicity against human GISTT1 cells harboring KIT D816E mutant assessed as cell growth inhibition after 72 hrs by CellTiterGlo assay; assay type: functional; conditions: GISTT1, 72 h
[7] = Intrinsic clearance in mouse liver microsomes at 3 uM after 60 mins by LC-MS analysis; assay type: ADME, microsome; conditions: read-out: CLH
[8] = Intrinsic clearance in human liver microsomes at 3 uM after 60 mins by LC-MS analysis; assay type: ADME, microsome; conditions: read-out: CLH
[9] = Metabolic stability in human plasma assessed as compound remaining at 5 uM after 60 mins by LC-MS analysis; assay type: ADME, cell-free; conditions: read-out: Stability
[10] = Metabolic stability in mouse plasma assessed as compound remaining at 5 uM after 60 mins by LC-MS analysis; assay type: ADME, cell-free; conditions: read-out: Stability
[11] = Protein binding in human plasma at 5 uM after 6 hrs by equilibrium dialysis method; assay type: ADME, cell-free; conditions: read-out: PPB (converted)
[12] = Protein binding in mouse plasma at 5 uM after 6 hrs by equilibrium dialysis method; assay type: ADME, cell-free; conditions: read-out: PPB (converted)
[13] = Efflux ratio of apparent permeability across basolateral to apical over apical to basolateral side in human Caco2 cells at 10 uM after 2 hrs by LC-MS/MS; assay type: ADME, cell-based; conditions: Caco-2
[14] = biological target: Mast/stem cell growth factor receptor Kit (Homo sapiens, UniProt P10721, T670I/V559D)
Sequence of Mast/stem cell growth factor receptor Kit (Homo sapiens, UniProt P10721, T670I/V559D) (P10721 26-976 V559D/T670I limits assumed): as the sequence (P10721 26-976 D816H limits assumed) above, with V534D, T645I, H791D counted along it

[15] = biological target: Mast/stem cell growth factor receptor Kit (Homo sapiens, UniProt P10721, V559D/V654A)
Sequence of Mast/stem cell growth factor receptor Kit (Homo sapiens, UniProt P10721, V559D/V654A) (P10721 26-976 V559D/V654A limits assumed): as the sequence (P10721 26-976 D816H limits assumed) above, with V534D, V629A, H791D counted along it

[16] = tested on: Mast/stem cell growth factor receptor Kit (Homo sapiens), P10721 [V654A]; conditions: GIST430
Sequence of Mast/stem cell growth factor receptor Kit (Homo sapiens), P10721 [V654A] (P10721 whole entry V654A): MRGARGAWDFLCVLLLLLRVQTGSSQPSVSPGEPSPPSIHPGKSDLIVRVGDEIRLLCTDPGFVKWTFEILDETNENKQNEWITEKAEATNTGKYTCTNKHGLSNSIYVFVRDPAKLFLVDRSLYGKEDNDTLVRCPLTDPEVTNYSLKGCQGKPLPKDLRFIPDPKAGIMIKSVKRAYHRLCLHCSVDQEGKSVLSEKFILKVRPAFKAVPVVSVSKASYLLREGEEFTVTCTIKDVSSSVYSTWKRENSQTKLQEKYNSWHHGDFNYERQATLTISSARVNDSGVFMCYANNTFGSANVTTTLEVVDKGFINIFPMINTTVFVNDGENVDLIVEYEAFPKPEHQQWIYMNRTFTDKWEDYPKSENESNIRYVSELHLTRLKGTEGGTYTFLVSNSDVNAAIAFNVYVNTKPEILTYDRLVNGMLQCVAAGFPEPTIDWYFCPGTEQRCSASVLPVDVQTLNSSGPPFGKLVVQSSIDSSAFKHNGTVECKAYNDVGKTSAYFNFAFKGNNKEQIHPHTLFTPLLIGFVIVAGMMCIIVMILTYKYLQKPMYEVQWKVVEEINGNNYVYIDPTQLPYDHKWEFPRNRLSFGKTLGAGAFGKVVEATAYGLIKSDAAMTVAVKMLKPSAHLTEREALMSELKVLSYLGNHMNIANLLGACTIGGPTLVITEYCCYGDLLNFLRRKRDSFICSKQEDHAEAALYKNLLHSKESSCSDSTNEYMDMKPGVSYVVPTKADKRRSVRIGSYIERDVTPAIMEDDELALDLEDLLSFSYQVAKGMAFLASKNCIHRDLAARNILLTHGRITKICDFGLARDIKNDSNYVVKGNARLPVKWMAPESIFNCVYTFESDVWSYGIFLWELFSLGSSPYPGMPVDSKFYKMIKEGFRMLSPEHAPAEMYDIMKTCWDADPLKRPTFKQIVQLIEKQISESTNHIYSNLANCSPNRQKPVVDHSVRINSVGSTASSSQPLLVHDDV

Sequence of Mast/stem cell growth factor receptor Kit (Homo sapiens, UniProt P10721) (P10721 whole entry): as the sequence (P10721 whole entry V654A) above, with A654V counted along it

Q: For `Cc1c(C#Cc2cnc(N)nc2)cccc1C(=O)Nc1ccc(CN2CCN(C)CC2)c(C(F)(F)F)c1`, which IC50 [1] is on record?
A: 6.2 nM

Q: And the IC50 [2]?
A: 326 nM

Q: What about the GI50 at 72 h [3] of the same compound?
A: 15800 nM

Q: What about the GI50 (GISTT1 [4]) of the same compound?
A: 35 nM

Q: And the GI50 (GISTT1 [5])?
A: 51 nM

Q: What about the GI50 (GISTT1 [6]) of the same compound?
A: 381 nM

Q: What about the microsomal CLint at 3 µM [7] of the same compound?
A: 36 µL/min/mg

Q: And the microsomal CLint at 3 µM [8]?
A: 9 µL/min/mg

Q: And the remaining at 1 h, 5 µM [9]?
A: 59%

Q: And the remaining at 1 h, 5 µM [10]?
A: 84%

Q: And the fraction unbound at 6 h, 5 µM [11]?
A: 0.016

Q: And the fraction unbound at 6 h, 5 µM [12]?
A: 0.016

Q: And the efflux ratio at 2 h, 10 µM [13]?
A: < 1

Q: What about the IC50 [14] of the same compound?
A: 21 nM

Q: And the IC50 [15]?
A: 1080 nM

Q: What about the GI50 [16] of the same compound?
A: 308 nM

Q: What does the source list for `Cc1ccc(C(=O)Nc2ccc(CN3CCN(C)CC3)c(C(F)(F)F)c2)cc1C#Cc1cnc(N)nc1`?
A: IC50 [1]: 1.9 nM; IC50 [2]: 42.2 nM; GI50 at 72 h [3]: 2020 nM; GI50 (GISTT1 [4]): 23 nM; GI50 (GISTT1 [5]): 44 nM; GI50 (GISTT1 [6]): 141 nM; microsomal CLint at 3 µM [8]: 1 µL/min/mg; remaining at 1 h, 5 µM [9]: 91%; remaining at 1 h, 5 µM [10]: 50%; fraction unbound at 6 h, 5 µM [11]: 0.004; fraction unbound at 6 h, 5 µM [12]: 0.004; efflux ratio at 2 h, 10 µM [13]: < 1; IC50 [14]: 21.4 nM; IC50 [15]: 247 nM; GI50 [16]: 51 nM
